Laboratory results reported in publication PMC9469084, “Unravelling the pharmacokinetics of aflatoxin B1: In vitro determination of Michaelis–Menten constants, intrinsic clearance and the metabolic contribution of CYP1A2 and CYP3A4 in pooled human liver microsomes” (Frontiers in Microbiology, 2022).
Values joined by “and” are separate entries in the source; they are usually repeats but may differ in a detail not shown here. Equal entries are not always repeated. Where two headings read alike, the source gives them in different places. Marks after values point to notes of the source that are not given here.

Key:
[1] = system: CYP3A4 (MDZ), CYP1A2 (PH); assay: in vitro; settings: human, pH 7.4; for microsomal CLint: microsomes
Description: (§1) A 1.15% KCl solution was made in HPLC grade water and stored at 4°C. HLM (20 mg/ml in 250 mM sucrose) were diluted in 1.15% KCl to achieve a final protein concentration of 0.1; 0.25; 0.5; 0.75 and 1 mg/ml in the samples. The stop reagent was made with 300 μl FA, 5,500 μl ACN and Ultrapure water and contained the internal standards (IS; 0.072 μM of CHL and 0.12 μg/ml of ZAN).
(§2) Samples were prepared partially based on [Schelstraete et al. (2019a],[b)]. […] Next, 50 μl of a freshly prepared NADPH.4Na solution was added. After an incubation of 3 min, 50 μl of diluted HLM was added and they were placed back on the thermoshaker TS-100 (Biosan, Geraardsbergen, Belgium) with a rotation speed of 300 rpm and at a temperature of 37°C. After the indicated time (i.e., 5, 10, 20, 30 and 45 min), 25 μl of an ice cold stop reagent with IS, i.e., CHL for CYP probes and ZAN for AFB1, was added. For protein precipitation, 125 μl of TFA was added. Samples were centrifuged at 16,000×g for 20 min at 4°C. The centrifugal filters were discarded and the supernatant was added to 1 ml of a 0.2 M phosphate buffer. Next, 7 ml of ethyl acetate was added in order to perform a liquid–liquid extraction (LLE). Samples were extracted during 20 min on an Agitelec shaker at room temperature. For phase separation, samples were centrifuged at 2,000× g for 10 min. Subsequently, the organic phase was transferred in glass tubes and evaporated under a gentle nitrogen stream at 40°C (±5°C) using a Turbovap (Biotage, Charlotte, United States). After evaporation, samples were kept at −20°C until further analysis. Upon analysis, 250 μl of a 60/40 mobile phase A (MP A; H2O/MeOH/acetic acid (94/5/1, v/v/v) + 5 mM ammonium acetate)/mobile phase B (MP B; H2O/MeOH/acetic acid (2/97/1, v/v/v) + 5 mM ammonium acetate) mixture was added. After thorough vortexing and centrifuging for 10 min at 1,000× g, the samples were transferred to an autosampler vial. An aliquot of 5 μl was injected into the ultrahigh performance liquid chromatography (UPLC) - XEVO TQ-S (LC–MS/MS) equipment using an in-house developed and validated method.
(§3) A Waters Acquity class I UPLC system coupled to a XEVO TQ-S tandem quadrupole mass spectrometer (MS) from Waters (Milford, MA, United States) was used for the detection and quantification. A Charged Surface Hybrid (CSH) C18 column (1.7 μm 2.1 × 100 mm) with Guard column was used for chromatographic separation. The column temperature was set at 30°C; the sample temperature at 10°C. The MP was used at a flow rate of 0.250 ml/min following a gradient program (Table 1). The total duration for a single run was 12 min. The MS was operated in the electrospray positive mode (ESI+) with multiple reaction monitoring (MRM). Source temperature and desolvation temperature were set at 130°C and 200°C. The cone gas flow was set at 150 L/h, the desolvation gas flow at 550 L/h. Data was processed using Masslynx® and Targetlynx® software from Micromass (Manchester, United Kingdom). Data analysis was performed by transferring Targetlynx® data to Microsoft Excel and Sigmaplot version 14.5. For AFB1, substrate depletion was measured. Nonlinear regression on sigmoidal plots where the initial depletion rate (kdep) was plotted against AFB1 concentrations on a linear-log plot, was performed using Excel Solver ([Youdim and Dodia, 2010]).
(§4) Substrate work solutions of AFB1 were made to achieve sample concentrations from 0.5 μM to 50 μM, for the HLM experiments. For rhCYP an extra AFB1 sample concentration of 100 μM was implemented. HLM (20 mg/ml in 250 mM sucrose) were diluted in 1.15% KCl to achieve a final protein concentration of 0.25 and 0.5 mg/ml in the samples, as based on previous linearity experiments. The stop reagents were those described in 2.1.2.
(§5) For CYP3A4 rhCYP experiments, 50 μl of diluted supersomes at 150 pmol/ml were used instead of HLM, achieving a final concentration of 30 pmol/ml.

[2] = system: pooled human liver microsomes; assay: in vitro
Description: as §1, §2, §3, §4, §5

[3] = human, microsomes
[4] = cited from earlier work
CYP3A4 [5] = biological target: CYP3A4 (Homo sapiens, UniProt P08684); assay: in vitro
Description: as §4
(§6) For CYP3A4 rhCYP experiments, 50 μl of diluted supersomes at 150 pmol/ml were used instead of HLM, achieving a final concentration of 30 pmol/ml. For CYP1A2 rhCYP experiments, 50 μl of diluted EasyCYP LR bactosomes at 50 pmol/ml were used, achieving a final concentration of 10 pmol/ml.
(§7) The same equipment, settings and procedures were used as explained in Section “LC–MS/MS (linearity experiments).” Data analysis was performed by transferring Targetlynx® data to Microsoft® Excel. Metabolite formation velocity versus substrate concentration figures were plotted with error bars, Sigmaplot version 14.5 was used for determining the Michaelis–Menten constant (Km) and maximum velocity (Vmax) by performing nonlinear regression on the figures. For AFB1 substrate depletion was measured. Nonlinear regression on sigmoidal plots, where the initial depletion rate (kdep) was plotted against AFB1 concentrations on a linear-log plot, was performed using Excel Solver ([Youdim and Dodia, 2010]).
(§8) The CLH,u,int is multiplied by the AAF, leading to an AAF corrected CLH,u,int (CLH,u,int,AAF). The obtained Km and Vmax values of the CYP probes from rhCYPs were used to calculate intersystem extrapolation factors (ISEFs) for both Vmax and CLint (Equations 7 and 8).
(§9) (7) VmaxISEF=Vmax,HLM/Vmax,rhCYP∗CYPabundancepmolP450/mg
(§10) (8) CLintISEF=Vmax,HLM/Km,HLM∗10^−6/Vmax,rhCYP/Km,rhCYP∗10^−6∗CYPabundancepmolP450/mg
(§11) CLH,u,int,AAF values of AFB1 from rhCYP experiments were multiplied with the CLint ISEF, resulting in an ISEF corrected CLH,u,int,AAF (CLH,u,int,AAF,ISEF). […] Equation 10 presents the extrapolation to the whole liver hepatic blood clearance from rhCYP experiments. The hepatic blood clearance (CLH,B) was multiplied by the blood/plasma ratio (B:P) to obtain the whole liver hepatic plasma clearance, CLH,P.
(§12) (10) CLH,BL/h=QH∗fu,b∗CLH,u,int,AAF,ISEF/QH+fu,b∗CLH,u,int,AAF,ISEF
(§13) Next, Km and Vmax experiments were performed in recombinant enzyme systems. […] For AFB1, where substrate depletion was analyzed, kdep was determined for different substrate concentrations in supersomes and bactosomes which was plotted against AFB1 substrate concentrations on a log-scale (Figures 3E,F). By dividing the theoretical maximal kdep by the protein concentration, the CLint was achieved from which the Vmax could be determined ([Youdim and Dodia, 2010]).

human liver microsomes [6] = settings: cited from earlier work
CYP1A2 [7] = biological target: T1, CYP1A2 (Homo sapiens, UniProt P05177)
Description: as §4, §6, §7, §8, §9, §10, §11, §12, §13

CYP3A4/3A5 = format: in vitro ADME, human
CYP1A2 [8] = biological target: T1, CYP1A2; design: tissue Corning; host or cells: human liver microsomes, UltraPool HLM 150, mixed gender; settings: cited from earlier work
CYP3A5 = settings: cited from earlier work
human liver microsomes [9] = assay: AFB1 inhibition assays in HLM, both contributions combined; format: in vitro ADME
[10] = cited from earlier work; remark: listed apart in the source
CYP3A7 = settings: cited from earlier work
CYP1A2 [11] = biological target: T1, CYP1A2; assay: AFB1 inhibition assay in HLM with α-naphthoflavone; format: in vitro ADME; design: tissue Corning; host or cells: human liver microsomes, UltraPool HLM 150, mixed gender
CYP3A4 [12] = settings: cited from earlier work
[13] = HLM pool of 16.0 donors, ref Kazmi, 2015

T1 sequence (P05177 whole entry): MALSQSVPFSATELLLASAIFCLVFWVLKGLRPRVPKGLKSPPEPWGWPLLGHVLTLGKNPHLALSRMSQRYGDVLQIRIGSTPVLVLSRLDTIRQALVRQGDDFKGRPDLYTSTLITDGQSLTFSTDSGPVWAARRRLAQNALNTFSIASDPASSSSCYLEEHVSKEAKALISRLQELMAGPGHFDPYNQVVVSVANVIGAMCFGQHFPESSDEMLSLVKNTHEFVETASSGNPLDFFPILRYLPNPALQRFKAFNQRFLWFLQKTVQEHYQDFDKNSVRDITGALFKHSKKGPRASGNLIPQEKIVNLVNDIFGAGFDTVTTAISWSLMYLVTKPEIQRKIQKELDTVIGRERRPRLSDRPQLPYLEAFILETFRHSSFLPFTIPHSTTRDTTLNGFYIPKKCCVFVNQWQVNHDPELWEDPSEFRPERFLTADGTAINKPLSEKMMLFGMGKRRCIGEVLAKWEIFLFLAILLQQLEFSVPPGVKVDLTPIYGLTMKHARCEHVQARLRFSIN
CYP3A4 (Homo sapiens, UniProt P08684), sequence (P08684 2-503): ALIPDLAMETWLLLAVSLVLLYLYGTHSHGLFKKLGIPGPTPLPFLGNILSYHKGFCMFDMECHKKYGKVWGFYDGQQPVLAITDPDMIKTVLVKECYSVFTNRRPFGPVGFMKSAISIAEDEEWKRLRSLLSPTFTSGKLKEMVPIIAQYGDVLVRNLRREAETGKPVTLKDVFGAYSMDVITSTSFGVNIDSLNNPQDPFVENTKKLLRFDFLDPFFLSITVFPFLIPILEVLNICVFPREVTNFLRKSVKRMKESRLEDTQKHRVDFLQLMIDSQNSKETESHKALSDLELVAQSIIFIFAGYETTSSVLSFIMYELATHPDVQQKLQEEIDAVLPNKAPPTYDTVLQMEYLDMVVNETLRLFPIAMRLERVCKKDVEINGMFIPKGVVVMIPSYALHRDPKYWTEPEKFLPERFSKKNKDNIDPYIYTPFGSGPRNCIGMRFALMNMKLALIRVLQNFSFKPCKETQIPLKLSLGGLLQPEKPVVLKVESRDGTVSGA

Molecule: Cc1ncc2n1-c1ccc(Cl)cc1C(c1ccccc1F)=NC2 [MDZ, midazolam, reference compound]
- microsomal CLint [1]: 445 µL/min/mg
- Km [1]: 2.15 µM
- CLH,B calculated (hepatic blood clearance, AAF corrected) ([2]; human, pH 7.4): 44.1 L/h
- CLH,p calculated (hepatic plasma clearance) ([2]; human, pH 7.4): 26.6 L/h
- CLH,u,int (whole liver) ([2]; human, pH 7.4): 1,941 L/h
- calculated CLH,B compared to literature ([2]; human, pH 7.4): ≤ 1.00 fold
- fraction unbound [3]: 0.907
- CLH,p literature ([4]; ref Persson et al. (1987)): 29.0 L/h^d
- Km (CYP3A4 [5]; human): 3.2 µM
- Vmax (CYP3A4 [5]; human, pH 7.4): 14.1 pmol/min/pmol P450
- CLH,u,int (whole liver) (human liver microsomes [6]): 2,700 L/h

Molecule: CCOc1ccc(NC(C)=O)cc1 [PH, phenacetin, reference compound]
- Vmax (CYP1A2 [7]; CYP1A2 bactosomes): 11.6 pmol/min/pmol P450
- microsomal CLint [1]: 21.4 µL/min/mg
- Km [1]: 40 µM
- CLH,p calculated (hepatic plasma clearance) ([2]; HLM, probe substrates, CLH,B x B:P): 21.9 L/h
- CLH,B calculated (hepatic blood clearance, AAF corrected) ([2]; HLM, probe substrates, QH 90 L/h, Equation 9): 21.7 L/h
- calculated CLH,B compared to literature ([2]; HLM, MDZ vs Kazmi, 2015, PH vs Shibata et al., 2002): ≤ 1.04 fold
- CLH,u,int (whole liver) ([2]; HLM, MPPGL 40 mg/g, LW 1,650 g, Equation 4): 84.74 L/h
- CLH,B literature (in vivo human hepatic blood clearance) ([4]; ref Shibata et al. (2002)): 20.8 L/h
- CLH,u,int (whole liver) (human liver microsomes [6]; [13]): 92.00 L/h
- CLint,in vitro (human liver microsomes [6]; [13]): 23.3 µL/min/mg
- CLint,in vitro (human liver microsomes [6]; HLM pool of 105 donors, ref Gao et al., 2017): 14.5 µL/min/mg
- Km (human liver microsomes [6]): 10 to 62 µM

Molecule: aflatoxin B1 [AFB1]
- CYP3A4/5 contribution to AFB1 metabolism (CYP3A4/3A5): 45%
- CLH,B calculated (hepatic blood clearance, ISEF and AAF corrected) (CYP1A2 [7]): 56.1 L/h
- CLH,B from EasyCYP bactosomes relative to CLH,B from HLM (CYP1A2) (CYP1A2 [7]): 1.46 fold
- CLH,p calculated (CYP1A2 [7]): 57.8 L/h
- CLH,u,int (CYP1A2 [7]): 1,295 L/h
- CLH,u,int,AAF (CYP1A2 [7]): 932 L/h
- Km (CYP1A2 [7]): 58.2 µM
- Vmax,ISEF (CYP1A2 [7]): 14.7 nmol/mg/min
- CLH,B calculated (hepatic blood clearance, AAF corrected), CYP3A4 [2]: 40.0 L/h and 40.0^CYP3A4 L/h
- CLH,p calculated, CYP1A2 [2]: 39.6 L/h
- CLH,p calculated, CYP3A4 [2]: 41.2 L/h
- CLH,u,int (whole liver) [2]: 1,190 L/h
- CLH,u,int (whole liver), CYP1A2 [2]: 583^CYP1A2 L/h
- CLH,u,int (whole liver), CYP3A4 [2]: 535^CYP3A4 L/h
- CLH,u,int,AAF [2]: 450^CYP3A4 L/h and 420^CYP1A2 L/h
- Km [2]: 40.9 µM
- CLint,in vitro ([2]; human): 282 µL/min/mg
- CYP1A2 contribution (CYP1A2 [8]): 1–5%
- contribution of CYP1A2 (CYP1A2 [8]): 95%
- Km (CYP1A2 [8]; read-out: Km for the AFBO formation via CYP1A2): 41 µM
- Km (CYP1A2 [8]; read-out: Km for the AFM1 formation via CYP1A2): 29 µM
- CYP3A5 contribution (CYP3A5): 4–15%
- contribution ascribed to other enzymes, expectedly CYP2A13 (human liver microsomes [9]): 6.0%
- sum of CYP3A4/5 and CYP1A2 contributions (human liver microsomes [9]): 94%
- CLH,B calculated (hepatic blood clearance, ISEF and AAF corrected) (CYP3A4 [5]): 47.7 L/h
- CLH,B from supersomes relative to CLH,B from HLM (CYP3A4) (CYP3A4 [5]): 1.19 fold
- CLH,p calculated (CYP3A4 [5]): 49.1 L/h
- CLH,u,int (CYP3A4 [5]): 755 L/h
- CLH,u,int,AAF (CYP3A4 [5]): 634 L/h
- Km (CYP3A4 [5]): 49.6 µM
- Vmax,ISEF (CYP3A4 [5]): 5.97 nmol/mg/min
- Vmax,ISEF (ISEF corrected Vmax) (CYP3A4 [5]): 43.6 pmol/min/pmol P450
- fu,B (free fraction in blood) [10]: 0.160^b
- Vmax (AFBO or AFQ1 formation), range (human liver microsomes [6]): 236–11,281 pmol/(mg.min)
- Km (human liver microsomes [6]; read-out: Km (AFBO or AFQ1 formation), range): 90 to 1720 µM
- CYP3A7 contribution (CYP3A7): 5–7%
- CYP1A2 contribution to AFB1 metabolism (CYP1A2 [11]): 49%
- CYP3A4 contribution (CYP3A4 [12]): 79–95%
- Km (CYP3A4 [12]; read-out: Km for the AFBO formation via CYP3A4): 133 µM
- Km (CYP3A4 [12]; read-out: Km for the AFM1 formation via CYP3A4): 139 µM
